Patent US20110237500A1, “CECROPIN-MAGAININ HYBRID PEPTIDES” (priority 2008, published 2011)

Tests used:
Format in all cases: cell-based
S. aureus ATCC29213 = experiment: Viable count (CFU/ml) time-kill assay of peptides with bacteria; details: 102 μg/ml peptide, 37° C., growth versus PBS control
B. thailandensis E264 = tested on: B. thailandensis E264; parameters: key: —: No effect (i.e. no significant difference between control [culture with no peptide] and culture with peptide); *: ~1 log effect (i.e. culture with peptide that's growth was ~1 log less than control); **: 1-2 log effect; ***: 2-4 log effect; ****: >4 log effect; “”: “Immediate effect” (i.e. loss of growth by at least 1 log compared to control immediately on addition of peptide [T = 0])
F. tularensis LVS = tested on: F. tularensis LVS; parameters: key: —: No effect (i.e. no significant difference between control [culture with no peptide] and culture with peptide); *: ~1 log effect (i.e. culture with peptide that's growth was ~1 log less than control); **: 1-2 log effect; ***: 2-4 log effect; ****: >4 log effect; “”: “Immediate effect” (i.e. loss of growth by at least 1 log compared to control immediately on addition of peptide [T = 0])
F. novicida U112 = tested on: F. novicida U112; parameters: key: —: No effect (i.e. no significant difference between control [culture with no peptide] and culture with peptide); *: ~1 log effect (i.e. culture with peptide that's growth was ~1 log less than control); **: 1-2 log effect; ***: 2-4 log effect; ****: >4 log effect; “”: “Immediate effect” (i.e. loss of growth by at least 1 log compared to control immediately on addition of peptide [T = 0])
[1] = tested on: Y. pseudotuberculosis IP32593; parameters: key: —: No effect (i.e. no significant difference between control [culture with no peptide] and culture with peptide); *: ~1 log effect (i.e. culture with peptide that's growth was ~1 log less than control); **: 1-2 log effect; ***: 2-4 log effect; ****: >4 log effect; “”: “Immediate effect” (i.e. loss of growth by at least 1 log compared to control immediately on addition of peptide [T = 0])

GIGKFLHSAKKFGKAFVGEIMNS [Magainin II]
Effect of peptides after 4 hours incubation with bacteria: S. aureus ATCC29213 (S. aureus ATCC29213): **** (>4 log effect)
Effect of peptides after 4 hours incubation with bacteria: B. thailandensis E264 (B. thailandensis E264): —
Effect of peptides after 4 hours incubation with bacteria: F. tularensis LVS (F. tularensis LVS): —
Effect of peptides after 4 hours incubation with bacteria: F. novicida U112 (F. novicida U112): —
Effect of peptides after 4 hours incubation with bacteria: Y. pseudotuberculosis IP32593 [1]: —
